US20110190503A1, “Thiazolopyridin-2-yloxy-phenyl and thiazolopyrazin-2-yloxy-phenyl amines as modulators of leukotriene A4 hydrolase” (Janssen Pharmaceutical NV, priority 2008, published 2011)
Structures can show the parent of a compound that is named as a salt. Where two headings read alike, the source gives them in different places.

Experiments:
[1] = biological target: T1, recombinant human LTA4 hydrolase (rhLTA4H) (Homo sapiens, UniProt P09960); assay: Recombinant human LTA4 hydrolase assay for LTA4 hydrolase inhibitor activity; format: biochemical; details: rhLTA4H, LTA4 substrate, LTB4 by immunoassay; single determination or average; read-out: IC50
T1 construct: made in house; host or cells: Spodoptera frugiperda (Sf-9) cells, recombinant baculovirus (pFastBac1)
T1 sequence (P09960 1-611): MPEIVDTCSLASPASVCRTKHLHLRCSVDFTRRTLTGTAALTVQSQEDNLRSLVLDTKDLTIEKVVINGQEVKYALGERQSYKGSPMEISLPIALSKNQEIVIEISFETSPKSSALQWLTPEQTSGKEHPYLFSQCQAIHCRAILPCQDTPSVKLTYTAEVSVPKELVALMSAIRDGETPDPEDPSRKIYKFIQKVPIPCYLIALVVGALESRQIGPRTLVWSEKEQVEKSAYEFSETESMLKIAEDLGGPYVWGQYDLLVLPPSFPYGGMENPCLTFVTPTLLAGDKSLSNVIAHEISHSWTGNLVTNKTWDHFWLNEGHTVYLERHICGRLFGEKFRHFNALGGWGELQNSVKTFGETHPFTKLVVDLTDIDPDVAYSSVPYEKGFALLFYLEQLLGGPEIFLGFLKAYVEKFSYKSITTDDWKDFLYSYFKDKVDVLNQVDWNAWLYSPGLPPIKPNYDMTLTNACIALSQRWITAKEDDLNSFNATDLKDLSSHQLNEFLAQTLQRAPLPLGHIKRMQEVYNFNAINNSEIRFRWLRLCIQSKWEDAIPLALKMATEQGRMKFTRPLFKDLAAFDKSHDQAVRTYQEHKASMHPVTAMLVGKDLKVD
Outline: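 LTB4 formed from LTA4 substrate (free acid from the methyl ester) was quantified by enzyme immunoassay after a 30 min rt reaction. Enzyme was 10 ng Sf-9-expressed human LTA4 hydrolase, pre-incubated 10 min with compound.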

[2] = system: LTB4 production by calcium ionophore-stimulated murine blood; assay: LTB4 production by calcium ionophore-stimulated murine blood for LTA4H inhibitor activity; format: cell-based, CD-1 mice; details: Mus musculus
Outline: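 LTB4 quantified by EIA in supernatants after murine (CD-1) heparinized whole blood was exposed to compound for 15 min, then to 7 μg/mL (final) A23187 for 30 min, all at 37° C. Reported values: single runs or means; three or more runs include SD.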

[3] = murine blood diluted 1 in 15, calcium ionophore A23187, LTB4 by immunoassay, read-out: IC50

SMILES: OC1(c2ccccn2)CCN(CCOc2ccc(Oc3nc4ncccc4s3)cc2)CC1 [Example 5, 4-Pyridin-2-yl-1-{2-[4-([1,3]thiazolo[4,5-b]pyridin-2-yloxy)phenoxy]ethyl}piperidin-4-ol]
- IC50 [1]: 0.014 µM
- IC50 [2, 3]: 0.14 µM

SMILES: NC(=O)N[C@H]1C[C@H]2CC[C@@H](C1)N2Cc1ccc(Oc2nc3ncccc3s2)cc1 [Example 278, meso-1-{(3-endo)-8-[4-([1,3]Thiazolo[4,5-b]pyridin-2-yloxy)benzyl]-8-azabicyclo[3.2.1]oct-3-yl}urea]
- IC50 [1]: 0.002 µM
- IC50 [2, 3]: 0.28 µM

SMILES: c1ccc(C2CCN(CCOc3ccc(Oc4nc5cccnc5s4)cc3)CC2)nc1 [Example 38, 2-{4-[2-(4-Pyridin-2-ylpiperidin-1-yl)ethoxy]phenoxy}[1,3]thiazolo[5,4-b]pyridine]
- IC50 [1]: 0.061 µM
- IC50 [2, 3]: 0.95 µM

SMILES: COc1ccccc1N1CCN(CCOc2ccc(Oc3nc4ncccc4s3)cc2)CC1 [Example 135, 2-(4-{2-[4-(2-Methoxyphenyl)piperazin-1-yl]ethoxy}phenoxy)[1,3]thiazolo[4,5-b]pyridine]
- IC50 [1]: 0.072 µM
- IC50 [2, 3]: 0.088 µM

SMILES: CC(=O)N1[C@@H]2CC[C@H]1C[C@@H](NCc1ccc(Oc3nc4ncccc4s3)cc1)C2 [Example 169, meso-(3-endo)-8-Acetyl-N-{[4-([1,3]thiazolo[4,5-b]pyridin-2-yloxy)phenyl]methyl}-8-azabicyclo[3.2.1]octan-3-amine]
- IC50 [1]: 0.018 µM
- IC50 [2, 3]: 0.054 µM

SMILES: CC(=O)N1C[C@H]2CC[C@@H](C1)N2CCOc1ccc(Oc2nc3ncccc3s2)cc1 [Example 141, meso-2-{4-[2-(3-Acetyl-3,8-diazabicyclo[3.2.1]oct-8-yl)ethoxy]phenoxy}[1,3]thiazolo[4,5-b]pyridine]
- IC50 [1]: 0.002 µM
- IC50 [2, 3]: 0.014 µM

SMILES: OC1(c2ccccn2)CCN(Cc2ccc(Oc3nc4ncccc4s3)cc2)CC1 [Example 101, 4-Pyridin-2-yl-1-[4-([1,3]thiazolo[4,5-b]pyridin-2-yloxy)benzyl]piperidin-4-ol]
- IC50 [1]: 0.011 µM
- IC50 [2, 3]: 0.003 µM

SMILES: NC(=O)N[C@@H]1C[C@H]2CC[C@@H](C1)N2Cc1ccc(Oc2nc3ncccc3s2)cc1 [Example 110, meso-1-{(3-exo)-8-[4-([1,3]Thiazolo[4,5-b]pyridin-2-yloxy)benzyl]-8-azabicyclo[3.2.1]oct-3-yl}urea]
- IC50 [1]: 0.001 µM
- IC50 [2, 3]: 1.44 µM

SMILES: NC(=O)C1CCN(Cc2ccc(Oc3nc4ncc(Cl)cc4s3)cc2)CC1 [Example 284, 1-{4-[(6-Chloro[1,3]thiazolo[4,5-b]pyridin-2-yl)oxy]benzyl}piperidine-4-carboxamide]
- IC50 [1]: 0.089 µM
- IC50 [2, 3]: 0.64 µM

SMILES: c1ccc(C2CCN(CCc3ccc(Oc4nc5ncccc5s4)cc3)CC2)nc1 [Example 48, 2-{4-[2-(4-Pyridin-2-ylpiperidin-1-yl)ethyl]phenoxy}[1,3]thiazolo[4,5-b]pyridine]
- IC50 [1]: 0.015 µM
- IC50 [2, 3]: 0.1 µM

SMILES: c1ccc(SC2CCN(CCOc3ccc(Oc4nc5ncccc5s4)cc3)CC2)cc1 [Example 3, 2-(4-{2-[4-(Phenylsulfanyl)piperidin-1-yl]ethoxy}phenoxy)[1,3]thiazolo[4,5-b]pyridine]
- IC50 [1]: 0.07 µM
- IC50 [2, 3]: 0.38 µM

SMILES: CC(=O)N1[C@@H]2CC[C@H]1C[C@@H](NCCOc1ccc(Oc3nc4ncccc4s3)cc1)C2 [Example 159, meso-(3-endo)-8-acetyl-N-{2-[4-([1,3]thiazolo[4,5-b]pyridin-2-yloxy)phenoxy]ethyl}-8-azabicyclo[3.2.1]octan-3-amine]
- IC50 [1]: 0.009 µM
- IC50 [2, 3]: 0.082 µM

SMILES: c1ccc(SC2CCN(CCOc3ccc(Oc4nc5ncccc5s4)cc3)CC2)nc1 [Example 291, 2-(4-{2-[4-(Pyridin-2-ylsulfanyl)piperidin-1-yl]ethoxy}phenoxy)[1,3]thiazolo[4,5-b]pyridine]
- IC50 [1]: 0.082 µM
- IC50 [2, 3]: 0.28 µM

SMILES: O=C(O)C1CCN(Cc2ccc(Oc3nc4ncccc4s3)cc2)CC1 [Example 131, 1-[4-([1,3]Thiazolo[4,5-b]pyridin-2-yloxy)benzyl]piperidine-4-carboxylic acid]
- IC50 [1]: 0.0078 µM
- IC50 [2, 3]: 1.07 µM

SMILES: OC1(c2cccc(C(F)(F)F)c2)CCN(Cc2ccc(Oc3nc4ncccc4s3)cc2)CC1 [Example 103, 1-[4-([1,3]Thiazolo[4,5-b]pyridin-2-yloxy)benzyl]-4-[3-(trifluoromethyl)phenyl]piperidin-4-ol]
- IC50 [1]: 0.01 µM
- IC50 [2, 3]: 0.12 µM

SMILES: NC(=O)N[C@@H]1C[C@H]2CC[C@@H](C1)N2CCOc1ccc(Oc2nc3ncccc3s2)cc1 [Example 142, meso-1-[(3-exo)-8-{2-[4-([1,3]Thiazolo[4,5-b]pyridin-2-yloxy)phenoxy]ethyl}-8-azabicyclo[3.2.1]oct-3-yl]urea hydrochloride]
- IC50 [1]: 0.008 µM
- IC50 [2]: 1600 µM

SMILES: NC(=O)N1C[C@H]2C[C@@H]1CN2CCOc1ccc(Oc2nc3ncccc3s2)cc1 [Example 268, (1R,4R)-5-{2-[4-([1,3]Thiazolo[4,5-b]pyridin-2-yloxy)phenoxy]ethyl}-2,5-diazabicyclo[2.2.1]heptane-2-carboxamide]
- IC50 [1]: 0.032 µM
- IC50 [2, 3]: 0.091 µM

SMILES: CC(=O)N1C[C@@H]2C[C@H]1CN2Cc1ccc(Oc2nc3ncc(F)cc3s2)cc1 [Example 128, 2-(4-{[(1S,4S)-5-Acetyl-2,5-diazabicyclo[2.2.1]hept-2-yl]methyl}phenoxy)-6-fluoro[1,3]thiazolo[4,5-b]pyridine]
- IC50 [1]: 0.023 µM
- IC50 [2, 3]: 0.005 µM

SMILES: NC(=O)N1C[C@H]2CC[C@@H](C1)N2Cc1ccc(Oc2nc3ncccc3s2)cc1 [Example 117, meso-8-[4-([1,3]Thiazolo[4,5-b]pyridin-2-yloxy)benzyl]-3,8-diazabicyclo[3.2.1]octane-3-carboxamide]
- IC50 [1]: 0.009 µM
- IC50 [2, 3]: 0.018 µM

SMILES: c1cnc2nc(Oc3ccc(CN4CCC(Oc5ccncc5)CC4)cc3)sc2c1 [Example 262, 2-(4-{[4-(Pyridin-4-yloxy)piperidin-1-yl]methyl}phenoxy)[1,3]thiazolo[4,5-b]pyridine]
- IC50 [1]: 0.003 µM
- IC50 [2, 3]: 0.097 µM

SMILES: C[C@H]1CCCCN1Cc1ccc(Oc2nc3ncccc3s2)cc1 [Example 90, 2-(4-{[(2S)-2-Methylpiperidin-1-yl]methyl}phenoxy)[1,3]thiazolo[4,5-b]pyridine]
- IC50 [1]: 0.0008 µM
- IC50 [2, 3]: 0.023 µM

SMILES: NC(=O)C1CCN(CCOc2ccc(Oc3nc4nccnc4s3)cc2)CC1 [Example 26, 1-{2-[4-([1,3]Thiazolo[4,5-b]pyrazin-2-yloxy)phenoxy]ethyl}piperidine-4-carboxamide]
- IC50 [1]: 0.2 µM
- IC50 [2, 3]: 0.26 µM

SMILES: NC(=O)N[C@H]1C[C@H]2CC[C@@H](C1)N2CCc1ccc(Oc2nc3ncccc3s2)cc1 [Example 77, meso-1-[(3-endo)-8-{2-[4-([1,3]Thiazolo[4,5-b]pyridin-2-yloxy)Phenyl]ethyl}-8-azabicyclo[3.2.1]oct-3-yl]urea]
- IC50 [1]: 0.0029 µM
- IC50 [2, 3]: 0.19 µM

SMILES: O=C(O)C1CCN(CCc2ccc(Oc3nc4ncccc4s3)cc2)CC1 [Example 81, 1-{2-[4-([1,3]Thiazolo[4,5-b]pyridin-2-yloxy)phenyl]ethyl}piperidine-4-carboxylic acid]
- IC50 [1]: 0.027 µM
- IC50 [2, 3]: 4.25 µM

SMILES: CS(=O)(=O)NC1CCN(CCOc2ccc(Oc3nc4ncccc4s3)cc2)CC1 [Example 163, N-[1-(2-{[4-([1,3]Thiazolo[4,5-b]pyridin-2-yloxy)phenyl]oxy}ethyl)piperidin-4-yl]methanesulfonamide]
- IC50 [1]: 0.006 µM
- IC50 [2, 3]: 0.031 µM

SMILES: CC(=O)N[C@H]1C[C@H]2CC[C@@H](C1)N2Cc1ccc(Oc2nc3nccc(C)c3s2)cc1 [Example 289, meso-endo-N-[8-{4-[(7-Methyl[1,3]thiazolo[4,5-b]pyridin-2-yl)oxy]benzyl}-8-azabicyclo[3.2.1]oct-3-yl]acetamide]
- IC50 [1]: 0.009 µM
- IC50 [2, 3]: 0.542 µM

SMILES: OC1CCN(Cc2ccc(Oc3nc4ncccc4s3)cc2)CC1 [Example 137, 1-[4-([1,3]Thiazolo[4,5-b]pyridin-2-yloxy)benzyl]piperidin-4-ol]
- IC50 [1]: 0.008 µM
- IC50 [2, 3]: 0.0056 µM

SMILES: CC(=O)N1C[C@@H]2C[C@H]1CN2Cc1ccc(Oc2nc3nccc(C)c3s2)cc1 [Example 125, 2-(4-{[(1S,4S)-5-Acetyl-2,5-diazabicyclo[2.2.1]hept-2-yl]methyl}phenoxy)-7-methyl[1,3]thiazolo[4,5-b]pyridine]
- IC50 [1]: 0.012 µM
- IC50 [2, 3]: 0.019 µM

SMILES: CS(=O)(=O)N[C@H]1C[C@H]2CC[C@@H](C1)N2Cc1ccc(Oc2nc3ncccc3s2)cc1 [Example 182, meso-N-[(3-endo)-8-{[4-([1,3]Thiazolo[4,5-b]pyridin-2-yloxy)phenyl]methyl}-8-azabicyclo[3.2.1]oct-3-yl]methanesulfonamide]
- IC50 [1]: 0.0019 µM
- IC50 [2, 3]: 0.024 µM
